Measured values from PMC9873984, “Membrane cholesterol regulates inhibition and substrate transport by the glycine transporter, GlyT2” (Life Science Alliance, 2023).

Columns and labels:
WT GlyT2 [1] = molecular target: T1, WT GlyT2 (Homo sapiens, UniProt Q9Y345); assay: Inhibitor concentration–responses on glycine transport currents, two-electrode voltage clamp (control and MβCD-treated oocytes); format: cell-based; parameters: expressed in transfected cells; host or cells: Xenopus laevis oocytes injected with in vitro transcribed RNA (pOTV vector); conditions: for Reduction of potency after cholesterol depletion: MβCD-treated vs control oocytes
T1 sequence (Q9Y345 1-797): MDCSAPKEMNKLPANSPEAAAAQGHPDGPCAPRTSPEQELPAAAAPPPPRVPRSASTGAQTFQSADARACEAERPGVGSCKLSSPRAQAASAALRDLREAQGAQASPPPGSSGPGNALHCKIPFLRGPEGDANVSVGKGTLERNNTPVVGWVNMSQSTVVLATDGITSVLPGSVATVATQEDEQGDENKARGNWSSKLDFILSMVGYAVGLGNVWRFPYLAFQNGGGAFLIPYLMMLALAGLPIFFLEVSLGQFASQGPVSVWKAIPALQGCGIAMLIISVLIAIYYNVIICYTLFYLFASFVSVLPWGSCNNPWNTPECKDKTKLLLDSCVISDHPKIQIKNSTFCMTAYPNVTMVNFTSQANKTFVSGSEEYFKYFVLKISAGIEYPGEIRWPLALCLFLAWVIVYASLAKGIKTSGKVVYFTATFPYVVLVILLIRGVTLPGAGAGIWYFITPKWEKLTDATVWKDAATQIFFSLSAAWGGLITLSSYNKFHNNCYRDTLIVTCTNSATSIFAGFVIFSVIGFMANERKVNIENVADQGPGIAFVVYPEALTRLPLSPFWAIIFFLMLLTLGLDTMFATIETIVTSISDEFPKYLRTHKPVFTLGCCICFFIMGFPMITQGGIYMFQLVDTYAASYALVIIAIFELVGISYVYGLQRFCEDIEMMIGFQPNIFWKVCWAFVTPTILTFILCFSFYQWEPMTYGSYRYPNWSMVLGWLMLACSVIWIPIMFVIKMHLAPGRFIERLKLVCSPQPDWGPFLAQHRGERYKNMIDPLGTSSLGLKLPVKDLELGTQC
Experimental: (§1) Individual oocytes were incubated at 32°C for 30 min in 15 mM MβCD or γCD, suspended in frog Ringer’s solution.
Because of the slowly reversible nature of the compounds tested, inhibitor concentration–responses were performed cumulatively. An EC50 concentration of glycine was applied until a stable transport current was reached. EC50 concentrations of glycine were used to produce reliable currents for each transporter, and as the inhibitors are non-competitive, application of varying glycine concentrations is unlikely to affect their activity. Increasing concentrations of inhibitors were co-applied with glycine with each concentration producing a distinct plateau before the subsequent concentration was applied. Inhibitor concentration–responses were limited to a maximum concentration of 3 µM to mitigate the risk of changes to the free drug concentration because of micelle formation. Currents after the plateau of each inhibitor concentration were normalized to the current produced by application of glycine alone and fit using the method of least squares: Y=Bottom+(Top−Bottom)/(1+10^[X−LogIC50]), where X is log [inhibitor], Y is current normalized to glycine in the absence of inhibitor, and Top and Bottom are the maximal and minimal plateaus, respectively. The method of least squares was constrained to have the bottom value >0 and the hill slope as −1, enabling the calculation of IC50 values and the extent of inhibition produced by the maximal concentration applied.
IC50 values are presented as the mean and 95% confidence interval, whereas inhibition values are presented as the mean ± SEM. Data sets are n ≥ 5 from two batches of oocytes.
As the inhibitors assayed here are slowly reversible, inhibitor concentration–responses were unable to be performed on the same cell after treatment with MβCD. Thus, GlyT2 expression was tested by applying a maximal glycine concentration (300 µM) before treatment with MβCD to deplete membrane cholesterol. After MβCD treatment, oocytes were returned to the electrophysiology set-up and washed for 10 min in recording buffer to remove cyclodextrins. […] After successful depletion, inhibitor concentration–responses were performed as described above (see “Inhibitor concentration–response—mutagenesis” in the Materials and Methods section).

WT GlyT2 [2] = molecular target: T1, WT GlyT2; assay: Inhibitor washout time course (reversibility), control and MβCD-treated oocytes; format: cell-based; parameters: expressed in transfected cells; host or cells: Xenopus laevis oocytes injected with in vitro transcribed RNA (pOTV vector)
Experimental: as §1
Reversibility of GlyT2 inhibitors was determined by applying an EC50 concentration of glycine followed by co-application of the inhibitor at an IC50 concentration once a stable current had been achieved. Inhibitors were applied for 4 min as this was sufficient time to produce substantial inhibition for each compound and allowed for their direct comparison. At the conclusion of 4 min (time 0), ND96 buffer was perfused through the recording chamber to wash the oocyte. […] Transport currents were normalized to glycine currents in the absence of inhibitor and converted to % recovery values via Y=It−It=0/Imax−It=0, where Y is % recovery, I is current in nA, Imax is the maximal current produced by the glycine EC50, and t is time in minutes. Washout kinetics were then determined by fitting % recovery values to the first-order rate equation: Y=(Y0−Plateau).e^(−Kt)+Plateau, where Y is the % recovery, Y0 is the point, which crosses the Y-axis (constrained to 0) and increases to the plateau (constrained to between 0 and 100), K is the rate constant (1/t), and t is time in minutes. […] Because of the slowly […] nature of the inhibitors, washout time courses involving cyclodextrin treatment could not be performed on the same cell. […] As these experiments could not occur on the same cell, differences in half-life and maximal recovery were analysed via an unpaired two-tailed t test.

[3] = MβCD-treated oocytes (15 mM, 30 min, 32 °C; cholesterol depleted)
[4] = WT GlyT2 in Xenopus laevis oocytes, glycine EC50 co-applied, Table S10
[5] = MβCD-treated oocytes (15 mM, 30 min, 32°C)
[6] = MβCD-treated oocytes (15 mM, 30 min, 32 °C), 3 µM
[7] = WT GlyT2 in Xenopus laevis oocytes, 3 μM, Table S10
[8] = WT, washout after 4 min IC50 concentration of inhibitor, Table S11

Compound	Inhibition at 1 µM (column head 3 μM, footnote b) (WT GlyT2 [1]; MβCD-treated oocytes (15 mM, 30 min, 32 °C))	IC50 (WT GlyT2 [1]; [3]) [nM]	Reduction of potency after cholesterol depletion (WT GlyT2 [1])	Inhibition at 1 µM (column head 3 μM, footnote b) (WT GlyT2 [1]; WT GlyT2 in Xenopus laevis oocytes, Table S10)	IC50 (WT GlyT2 [1]; [4]) [nM]	Recovery at 30 min (WT GlyT2 [2]; Control oocytes, Table S8)	Recovery at 30 min (WT GlyT2 [2]; [5])	Inhibition at 3 μM (WT GlyT2 [1]; [6]) [%]	Inhibition at 3 μM (WT GlyT2 [1]; [7]) [%]	Half-life (transport current recovery) (WT GlyT2 [2]; Control oocytes, Table S8)	Half-life (transport current recovery) (WT GlyT2 [2]; [5])	Half-life (transport current recovery) (WT GlyT2 [2]; MβCD-treated oocytes (15 mM, 30 min, 32°C), listed as OLLeu)	Half-life (transport current recovery) (WT GlyT2 [2]; [8])	Recovery at 30 Min (WT GlyT2 [2]; [8])	Inhibition at 3 μM (WT GlyT2 [1]; Control oocytes, 3 µM, Table S7) [%]	IC50 (WT GlyT2 [1]; WT GlyT2 in Xenopus laevis oocytes, glycine EC50 co-applied, Table S10, listed as OLLys) [nM]	Recovery at 30 min (WT GlyT2 [2]; MβCD-treated oocytes (15 mM, 30 min, 32°C), listed as OLLys)
CCCCCCCC/C=C\CCCCCCCC(=O)O[C@H](CC(=O)[O-])C[N+](C)(C)C [Oleoyl-L-Carnitine, oleoyl-L-carnitine]	60.5 ± 5.3^b %	800	does not alter the potency	55.5 ± 5.2^b %	520	45.7%	92.4%										
CCCCCCCC/C=C\CCCCCCCC(=O)N[C@@H](CC(C)C)C(=O)O [Oleoyl-L-Leucine, oleoyl-L-leucine]		619	2.4 fold		262		92.2 ± 3.7 %	64.9 ± 3.8	69.4 ± 3.8	2.3 ± 0.5 min	3.1 ± 0.3 min	unchanged	2.3 ± 0.5 min	51.1 ± 2.7%			
CCCCCCCC/C=C\CCCCCCCC(=O)N[C@@H](CCCCN)C(=O)O [Oleoyl-L-Lysine, oleoyl-L-lysine]		269	2.3 fold		215		63.0 ± 4.1%	91.5 ± 1.5	86.6 ± 1.9					55.1 ± 1.5%	93.6 ± 1.9	220	no difference was observed
CCCCCCCC/C=C\CCCCCCCC(=O)N[C@@H](Cc1c[nH]c2ccccc12)C(=O)O [Oleoyl-L-Tryptophan, oleoyl-L-tryptophan]		130	does not alter the potency		103	No Recovery	No Recovery	78 ± 4	76.2 ± 2.3	No Recovery	No Recovery		No Recovery	No Recovery			
